According to publication PMC8196580, “Identification of Kaurane-Type Diterpenes as Inhibitors of Leishmania Pteridine Reductase I” (Molecules, 2021):
Read-outs that look alike come from different tables or passages of the source.

What was measured:
[1] = test system: L. major; set-up: method as in ChEMBL; conditions: ref ChEMBL, cited from earlier work
[2] = test system: L. major; test: ChEMBL dataset of pIC50 values against L. major used for the RF model (Table S1); type: cell-based, Leishmania major; also: call rule not given here
[3] = ChemBL structures with pIC50 values used for Random forest model construction (Table S1)
[4] = Active/Inactive class assigned to ChemBL structures for Random forest model construction (Table S1)
[5] = ChemBL structures with pIC50 values used for Random forest model construction, L. major
[6] = Active/Inactive class assigned to the ChEMBL pIC50 value for Random forest model construction, ref ChEMBL

SMILES	pIC50 Value [1, 3]	Outcome [2, 4]	pIC50 Value [1, 5]	Outcome [2, 6]
COc1cc(OC)c2c(C)[n+](-c3ccc(C)cc3C)c(C)cc2c1.F[B-](F)(F)F [CHEMBL482395]	5.48	Active	–	–
O=C(/C=C/c1ccc(O)cc1)c1ccccc1 [CHEMBL7747]	5.40	Active	–	–
Cc1cccc2cc(C3CC(c4cc(Cl)sc4Cl)=NN3)c(Cl)nc12 (stereo not drawn) [CHEMBL2236131]	5.70	Active	–	–
COc1cc2c(c(OC)c1)C(C)=[N+](c1ccc(OC)c3c(OC)cc(C)cc13)[C@@H](C)C2.O=C([O-])C(F)(F)F [CHEMBL222358]	5.31	Active	–	–
Fc1ccccc1-c1nc2ccccn2c1-c1cccnc1 [CHEMBL2151877]	–	–	4.46	Inactive
C/C=C/C=C/C=C/c1nc2ccccc2n2cccc12 [CHEMBL3260218]	5.92	Active	–	–
CC(C)c1ccc(-c2nc3cc([N+](=O)[O-])ccc3[nH]2)cc1 [CHEMBL2297904]	5.55	Active	–	–
ClCCN1c2ccccc2Oc2ccc(Cl)cc21 [CHEMBL3759618]	–	–	4.00	Inactive
N=C(N)c1ccc(OCCCCCOc2ccc(C(=N)N)cc2)cc1.O=S(=O)(O)CCO [CHEMBL935]	–	–	4.08	Inactive
C[n+]1ccc(-c2c3nc(c(-c4cc[n+](C)cc4)c4ccc([nH]4)c(-c4cc[n+](C)cc4)c4nc(c(-c5cc[n+](C)cc5)c5ccc2[nH]5)C=C4)C=C3)cc1.Cc1ccc(S(=O)(=O)[O-])cc1.Cc1ccc(S(=O)(=O)[O-])cc1.Cc1ccc(S(=O)(=O)[O-])cc1.Cc1ccc(S(=O)(=O)[O-])cc1 [CHEMBL2170855]	–	–	4.68	Inactive
CCCCCCN(CCCCCC)c1ccc(Nc2c3ccccc3nc3ccccc23)cc1 [CHEMBL88123]	6.62	Active	–	–
Clc1cc(Cl)cc(-c2c(-c3ccccc3)nc3ccccn23)c1 [CHEMBL2151868]	–	–	5.11	Active
CCc1ccc(-[n+]2c(C)cc3cc(OC)cc(OC)c3c2C)cc1.F[B-](F)(F)F [CHEMBL479649]	–	–	5.26	Active
c1ccc(-c2nc3ccccn3c2-c2ccncc2)cc1 [CHEMBL2151870]	–	–	5.19	Active
COc1cc(C(=O)/C=C/C2=Cc3cc(Cl)ccc3OC2)cc(OC)c1OC [CHEMBL1094315]	5.69	Active	–	–
CSc1ccc(Nc2ncnc3ccc([N+](=O)[O-])cc23)cc1 [CHEMBL3758748]	5.73	Active	–	–
C[C@@H]([C@H]1CC[C@H]2[C@@H]3CC[C@H]4C(=O)C(NC=O)=CC[C@]4(C)[C@H]3CC[C@]12C)N(C)C [CHEMBL496489]	–	–	4.65	Inactive
Cc1cccc2cc(/C=C/C(=O)c3ccc(Cl)s3)c(Cl)nc12 [CHEMBL1940867]	5.73	Active	–	–
CC1=N[C@H](C)Cc2c(-c3ccc(C(F)(F)F)cc3)ccc(O)c21 [CHEMBL1275619]	–	–	4.00	Inactive
Cc1ccc(-c2c(-c3ccccc3)nc3ccccn23)cc1 [CHEMBL2151857]	5.40	Active	–	–

SMILES	pIC50 Value [1, 3]	Outcome [2, 4]	pIC50 Value [1, 5]	Outcome [2, 6]
CN(C)Cc1ccc(Nc2c3ccccc3nc3ccccc23)cc1 [CHEMBL290441]	6.00	Active	–	–
C/C=C(\C)C(=O)NC1=CC[C@@]2(C)C(=CC[C@H]3[C@@H]4CC[C@H]([C@H](C)NC)[C@@]4(C)CC[C@@H]32)C1=O [CHEMBL525190]	–	–	4.67	Inactive
CCCCCCCCCCCCCCCCOP(=O)([O-])OCC[N+](C)(C)C [CHEMBL125]	–	–	4.44	Inactive
c1csc(-c2nc3ccccc3[nH]2)c1 [CHEMBL201221]	5.51	Active	–	–
CCOC(=N)c1ccc(N2CCN(c3nnc(-c4ccc([N+](=O)[O-])o4)s3)CC2)cc1.Cl [CHEMBL1783199]	–	–	4.32	Inactive
CCN1CN(CC(=O)O)CSC1=S [CHEMBL4284377]	–	–	4.48	Inactive
COc1ccccc1C(=O)N/N=C/c1ccc(O)cc1 [CHEMBL2382049]	–	–	4.24	Inactive
C=C1CCC[C@@]2(C)CC3=C(C[C@@H]12)C(=O)C=CC3=O [CHEMBL401659]	–	–	4.99	Inactive
Cc1csc(C(=O)/C=C/c2cc3cccc(C)c3nc2Cl)c1 [CHEMBL1940863]	5.74	Active	–	–
CCCCNC(=N)c1ccc(N2CCN(c3nnc(-c4ccc([N+](=O)[O-])o4)s3)CC2)cc1.Cl [CHEMBL1783204]	–	–	4.96	Inactive
C[C@@H](c1ncncc1F)[C@](O)(Cn1cncn1)c1ccc(F)cc1F [CHEMBL638]	–	–	5.21	Active
O=C(CCl)Nc1cc(Cl)ccc1Oc1ccccc1 [CHEMBL3759632]	–	–	4.37	Inactive
NP(=O)(OCc1ccc([N+](=O)[O-])cc1)N(CCCl)CCCl (stereo not drawn) [CHEMBL144896]	–	–	4.52	Inactive
CC(C)(O)[C@@H]1CC[C@](C)([C@H]2[C@@H](O)C[C@@]3(C)[C@@H]4C[C@H](O)[C@H]5C(C)(C)[C@@H](O[C@@H]6OC[C@@H](O)[C@H](O)[C@H]6O)CC[C@@]56C[C@@]46CC[C@]23C)O1 [CHEMBL500607]	–	–	4.25	Inactive
O=C(CCCl)N1c2ccccc2Oc2ccccc21 [CHEMBL3759988]	–	–	4.41	Inactive
O=C(CCl)N(c1ccccc1)c1ccccc1 [CHEMBL1603760]	–	–	4.39	Inactive
O=C(/C=C/c1ccc(-n2ccnc2)cc1)c1ccc(F)cc1 [CHEMBL570258]	5.61	Active	–	–
COc1ccc(-c2nc3ccccn3c2-c2ccccc2)cc1 [CHEMBL2151881]	–	–	4.58	Inactive
Cc1ccc(N2C(=O)C(c3ccccc3)(c3ccccc3)C2c2cn(C)c3ccccc23)cc1 (stereo not drawn) [CHEMBL2071561]	5.88	Active	–	–
O=[N+]([O-])c1ccc2nc(-c3ccccc3Cl)[nH]c2c1 [CHEMBL1947235]	5.48	Active	–	–

SMILES	pIC50 Value [1, 3]	Outcome [2, 4]	pIC50 Value [1, 5]	Outcome [2, 6]
Cn1c([N+](=O)[O-])cnc1-c1nnc(N2CCN(C(=O)c3cccs3)CC2)s1 [CHEMBL482666]	–	–	4.59	Inactive
Cn1c([N+](=O)[O-])cnc1-c1nnc(N2CCN(C(=O)c3cccc(Cl)c3)CC2)s1 [CHEMBL482665]	–	–	4.75	Inactive
COc1ccccc1-c1nnc(-c2ccc(C(=O)N/N=C/c3cccc(O)c3)cc2)o1 [CHEMBL4103014]	–	–	4.74	Inactive
CC1(C)C2CCC1(C)[C@H](OC(=O)/C=C/c1ccc(O)c(O)c1)C2 (stereo partly drawn) [CHEMBL4177500]	–	–	4.31	Inactive
COc1cc2c(c(OC)c1-c1c(C)cc3cccc(OC)c3c1O)C(C)=N[C@@H](C)C2 [CHEMBL222436]	–	–	4.00	Inactive
Clc1cc(Cl)cc(-c2nc3ccccn3c2-c2cccnc2)c1 [CHEMBL2151990]	–	–	4.50	Inactive
Cc1cccc2cc(/C=C/C(=O)c3ccsc3)c(Cl)nc12 [CHEMBL1940861]	5.71	Active	–	–
C/C=C/C=C/c1nc2ccc(OC)cc2n2cccc12 [CHEMBL3260208]	5.57	Active	–	–
CC(c1ccccc1)N1CN(CCO)CSC1=S (stereo not drawn) [CHEMBL4279631]	–	–	4.49	Inactive
CN1CCN(c2ccnc3cc(Cl)ccc23)CC1 [CHEMBL1255667]	–	–	4.00	Inactive
Cc1ccc2cc(/C=C/C(=O)c3ccsc3)c(Cl)nc2c1 [CHEMBL1940850]	5.55	Active	–	–
CCCCCCN(C)c1ccc(Nc2c3ccc(N(C)C)cc3nc3cc(N(C)C)ccc23)cc1 [CHEMBL88461]	7.15	Active	–	–
COc1ccccc1-c1nnc(-c2ccc(C(=O)N/N=C/c3ccc(O)c(O)c3)cc2)o1 [CHEMBL4092817]	6.02	Active	–	–
COc1ccccc1-c1nnc(-c2ccc(C(=O)N/N=C/c3cccc([N+](=O)[O-])c3)cc2)o1 [CHEMBL4086911]	–	–	4.13	Inactive
C=C[C@@]1(C)CC2=C(C[C@H]1C(=C)C)C(=O)C=CC2=O [CHEMBL401583]	–	–	4.06	Inactive
O=[N+]([O-])c1ccc(-c2nnc(NCc3cn(Cc4ccc(Cl)c(Cl)c4)nn3)s2)o1 [CHEMBL1951535]	–	–	3.88	Inactive
C[C@@H]1C[C@@]2(O[C@H]3C[C@@]4(C)[C@@H]5C[C@H](O)[C@H]6C(C)(C)[C@@H](O[C@@H]7OC[C@@H](O)[C@@H](O)[C@H]7O)CC[C@@]67C[C@@]57CC[C@]4(C)[C@@H]13)O[C@H](O)[C@]1(C)C[C@H]21 [CHEMBL501026]	–	–	4.19	Inactive
CCNC(=N)c1ccc(N2CCN(c3nnc(-c4ccc([N+](=O)[O-])o4)s3)CC2)cc1.Cl [CHEMBL1783202]	–	–	4.48	Inactive
COCCOC(=O)C1=C(C)NC(C)=C(C(=O)OC/C=C/c2ccccc2)C1c1cccc([N+](=O)[O-])c1 (stereo not drawn) [CHEMBL452076]	–	–	4.67	Inactive
CC1=C(C(=O)/C=C/c2ccc(O)cc2)C(c2ccccc2)NC(=O)N1C (stereo not drawn) [CHEMBL3787563]	5.77	Active	–	–
